PMC7663272, “Discovery of Tricyclic Pyranochromenone as Novel Bruton’s Tyrosine Kinase Inhibitors with In Vivo Antirheumatic Activity” (International Journal of Molecular Sciences, 2020)

How the values were obtained:
[1] = tested on: IL-6 production in LPS-stimulated THP-1 cells; experiment: LPS-induced IL-6 release in THP-1 cells (ELISA); type: cell-based, human
From the text: BTK plays a critical role in high-affinity IgE receptor (FcεRI) and B cell receptor (BCR) signaling, resulting in the release of proinflammatory cytokines. Therefore, BTK inhibitor treatment can reduce the production of both lymphoid and myeloid cytokines. […] We examined the cellular effects of compound 8 on the production of cytokines IL-6 and TNF-α in LPS-stimulated THP-1 cells. Following treatment with LPS alone or LPS and compound 8, the levels of cytokines secreted by THP-1 cells were assessed (Figure 5). LPS increased the output of proinflammatory cytokines.
THP-1 cells were obtained from the American Type Culture Collection (ATCC, Manassas, VA, USA). The cells were cultured in RPMI-1640 supplemented with 10% FBS, 1% P/S, and 0.05 mM 2-mercaptoethanol and maintained at 37 °C and 5% CO2 in a humidified incubator. Cytokine secretion (hIL-6 and TNF-α) in the culture supernatants of the THP-1 cells was measured using a human cytokine ELISA kit (Abcam). Differentiated THP-1 cells were treated with agents and LPS for 24 h, after which the cell culture media was centrifuged at 2000× g for 10 min to remove debris. Briefly, each sample (50 μL) or standard was mixed with the appropriate detection antibody and incubated for 1 h at room temperature on a plate shaker. […] Subsequently, 100 μL of stop solution was added to each well, and the optical density (OD) was measured at 450 nm. […]

[2] = tested on: collagen-induced arthritis (CIA); experiment: Murine model of collagen-induced arthritis (CIA); type: in vivo
Experimental: The in vivo efficacy of compound 8 was evaluated in a murine inflammatory model of collagen-induced arthritis (CIA). The study included four groups: a vehicle-treated control group and three treatment groups. The treatment groups comprised a dexamethasone-treated group, in which dexamethasone served as the positive control, and two treatment groups, in which animals were treated with compound 8 at doses of 10 and 50 mg/kg. Compound 8 was administered once daily for 15 days by oral gavage, and the in vivo efficacy was evaluated by measuring the clinical score and foot volume. […] There were no significant changes in the body weights of animals in all the treatment groups (data not shown) during treatment.
The animal study was approved by the Institutional Animal Care and Use Committee (IACUC) of the Korea Research Institute of Bioscience and Biotechnology on March 15, 2017, under approval number KRIBB-AEC-17090. Male DBA1/JNCrli mice (7 weeks old) were purchased from Japan CRL, Inc. The mice were housed in specific pathogen-free (SPF) conditions and were allowed ad libitum access to food and water. After 7 days of acclimatization, the mice were immunized with 0.05 mL of a type II collagen emulsion (Hooke Kit^TM Chicken Collagen, Cat. No. EK-0210 from Hooke) and Freund’s complete adjuvant by subcutaneous injection at 1.5 cm distal from the base of the tail. After 21 days, the immunized mice were administered a booster injection with 0.05 mL of a type II collagen emulsion (Hooke Kit^TM Chicken Collagen, Cat. No. EK-0211 from Hooke) and Freund’s incomplete adjuvant. The emulsions were prepared according to the manufacturer’s instructions. On day 21, the mice with CIA were randomized into four groups. The animals in the four groups were administered either 0.3 mg/kg dexamethasone (n = 5), 10 mg/kg compound 8 (n = 5), 50 mg/kg compound 8 (n = 5), or vehicle (n = 5), once a day, for […], orally. The vehicle, in which all test compounds were suspended, comprised DMAC (10%), Tween 80 (10%), and DW (80%). Clinical arthritis scores and body weights were assessed three times per week for 15 days. The paw volumes were measured using a LE7500 plethysmometer (Panlab, Barcelona, Spain) on days 0 and 42.

[3] = biological target: T1, BTK-C481S (Homo sapiens, UniProt Q06187, C481S); experiment: HotSpot kinase enzymatic assay, mutant BTK; type: biochemical; details: vs negative control (DMSO), mean of two separate experiments
T1 construct: purchased Reaction Biology Corporation
From the text: To confirm the role of the electrophilic warhead groups, the acryloyl group of compound 8 was replaced with methylacryloyl (11) and propionyl (12) groups, which are less electrophilic or lack an electrophilic feature. […] The significant difference in the inhibitory activity of compounds 8 and 12 could explain the critical role of the acryloyl moiety in potentiating the BTK inhibitory activity of compound 8. […] It was also confirmed by comparison of the inhibitory activity of the representative compounds (8–10) with electrophilic warheads against wild-type BTK (BTK-wt) and mutant BTK (BTK-C481S).
Kinase enzymatic assays for BTK, BMX, TXK, TEC, ITK, EGFR, ERBB2, ERBB4, and JAK3 were performed at Reaction Biology Corporation (www.reactionbiology.com, Malvern, PA, USA) using the HotSpot assay platform. Briefly, specific kinase/substrate pairs and the required cofactors were prepared in a reaction buffer comprising 20 mM HEPES (pH 7.5), 10 mM MgCl2, 1 mM EGTA, 0.02% Brij35, 0.02 mg/mL BSA, 0.1 mM Na3VO4, 2 mM DTT, and 1% DMSO. The compounds were added to the reaction mixture and allowed to incubate. Approximately 20 min later, a mixture of ATP (Sigma-Aldrich, St. Louis, MO, USA) and ^33P ATP (PerkinElmer, Waltham, MA, USA) was added to the reaction mixture at a final concentration of 10 μM. The reactions were performed at room temperature for 120 min; subsequently, the reactions were spotted onto P81 ion exchange filter papers (Whatman Inc., Maidstone, UK). Any unbound phosphate was removed by thoroughly washing the filter papers with 0.75% phosphoric acid. […] GraphPad Prism software was used to obtain the IC50 values and perform curve fitting.

T1 sequence (Q06187 whole entry C481S): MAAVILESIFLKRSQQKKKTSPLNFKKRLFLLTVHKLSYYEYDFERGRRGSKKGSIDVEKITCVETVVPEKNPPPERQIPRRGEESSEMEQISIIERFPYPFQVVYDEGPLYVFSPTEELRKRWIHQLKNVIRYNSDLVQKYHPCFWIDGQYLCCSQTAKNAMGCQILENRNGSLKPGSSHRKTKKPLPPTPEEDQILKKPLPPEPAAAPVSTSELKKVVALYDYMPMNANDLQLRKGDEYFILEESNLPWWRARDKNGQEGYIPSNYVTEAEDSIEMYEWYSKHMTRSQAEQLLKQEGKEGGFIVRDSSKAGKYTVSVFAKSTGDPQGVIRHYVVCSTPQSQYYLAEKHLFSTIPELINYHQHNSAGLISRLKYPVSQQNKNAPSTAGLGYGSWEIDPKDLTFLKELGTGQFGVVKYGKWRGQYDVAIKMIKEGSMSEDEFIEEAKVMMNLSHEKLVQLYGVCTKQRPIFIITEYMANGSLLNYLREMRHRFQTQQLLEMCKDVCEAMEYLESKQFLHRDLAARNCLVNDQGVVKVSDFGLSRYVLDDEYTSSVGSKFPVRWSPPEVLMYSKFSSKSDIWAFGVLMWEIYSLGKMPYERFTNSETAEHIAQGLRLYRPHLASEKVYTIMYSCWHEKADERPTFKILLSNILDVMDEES

## C=CC(=O)O[C@H]1Cc2cc3ccc(=O)oc3cc2OC1(C)C [Compound 8, (7S)-(+)-Acrylic acid, 8,8-dimethyl-2-oxo-6,7-dihydro-2H,8H-pyrano [3,2-g]chromen-7-yl ester]
[1]; LPS-stimulated differentiated THP-1 cells, 24 h, ELISA
  production of IL-6: significantly and dose-dependently reduced
[1]; compound at 10 μM, ibrutinib at 2 μM
  inhibitory activity on IL-6 production at 10 μM, compared with ibrutinib: comparable with that of ibrutinib at 2 μM
[2]; mice with CIA, 10 and 50 mg/kg oral
  toxicity: no obvious toxicity
[2]; mice, 50 mg/kg oral, dexamethasone 0.3 mg/kg
  efficacy compared with dexamethasone: comparable to that of dexamethasone at 0.3 mg/kg
[2]; mice, 10 and 50 mg/kg, daily oral, t-test
  clinical scores vs control: differed significantly from those with the control
[2]; mice, 10 and 50 mg/kg, once daily, oral gavage, 15 days
  severity of CIA (clinical score and foot volume): significantly reduced the severity of CIA in a dose-dependent manner
[3]
  inhibition at 10 µM: 9.7%
